Assays:
[1] = cited from earlier work; for Log D: pH 7.4
V. cholera cultures = assay: Growth of V. cholera cultures at 37° C.; format: cell-based; settings: during the time tested
Method: FIG. 10(b) illustrates growth of V. cholera cultures at 37° C. in response to addition of CAI-1-loaded Zein/CAS/VitE-Ac nanoparticles according to some embodiments described herein.
Changes in size and PDI could only be observed for the three-fold protein per amount of drug formulation (FIG. 9a). […] All parts of the formulation were necessary for the formation of nanoparticles with defined size. […] FNP of CAI-1 alone yielded a polydisperse emulsion, which then agglomerated and settled out over time.

V. cholerae WN1102 = assay: Bioluminescence response of V. cholerae WN1102 (in vitro bioactivity assay); format: cell-based; settings: suggested by bioactivity of the flow through
Text: FIG. 10(a) illustrates bioluminescence response of V. cholerae WN1102 supplemented with varying amounts of CAI-1-loaded Zein/CAS/VitE-Ac composite nanoparticles in PBS according to some embodiments described herein.
The bioactivity of blank Zein/CAS/VitEA particles was not detectable (FIG. 10b). […] The flow-through after centrifugal filtration can be regarded as a correlate for encapsulation efficiency of CAI-1. Bioactivity of the flow through was observed only at very high concentrations, approximately 1,000-10,000-fold higher than CAI-1 NPs.

[2] = Nanoparticle solution stability (milliQ H2O, PBS pH7.4, LB50, 2% bile salts, pH2.0) by DLS; format: physicochemical; settings: 10% wt. Nile Red loading
Method: Using a Zetasizer® Nano-ZS (Malvern instruments, Malvern, UK), dynamic light scattering (DLS) size measurements were performed on samples directly after FNP. Samples were diluted with ultra-pure water to avoid multiple scattering and analyzed at 25° C. using a detection angle of 173°. The reported size is the intensity-weighted average diameter as reported by the Malvern deconvolution software in Normal Mode analysis.
Initially, nanoparticle formulations were screened for stability at physiologic conditions (PBS) and conditions relevant to the in vitro model of V. cholera.
Various zein-to-casein ratios were produced to further investigate formulation stability in physiological environments relevant to oral delivery. Zein to casein ratios 4:1, 2:1, and 1:1 FIG. 17 in PBS, pH2.0, LB50 and 2% bile salts were investigated.

[3] = Nile Red encapsulation efficiency by UV-Vis of flow through after centrifugal filtration; format: physicochemical; settings: in Zn/CAS-VitE-Ac NPs, all stable formulations (0.2%-5 wt.%)
Text: The utility of an encapsulation method depends on its encapsulation capacity and efficiency for various compounds. […] Nile Red was encapsulated at 0.2%-5 wt. %. At 0.1% wt. […] Encapsulation efficiency of Nile Red in Zn/CAS-VitE-Ac NPs was >98% for all stable formulations as determined by UV-Vis measurement of the flow through after centrifugal filtration (FIG. 7). With increasing Nile Red concentration in the core, the mean nanoparticle diameter increases (FIG. 6b). The florescence intensity is expected to increase with higher dye loading per particle. This can be seen in FIGS. 6(c) and 6(d) for two different wavelengths (500 nm excitation, 690 nm emission) and core loadings of 0.2-1% wt.

Row | SMILES | Log D [1] | log P [1] | other results
1 | CN(C)c1ccc(/N=N/c2ccccc2C(=O)O)cc1 [Methyl Red] | 1.46 |  | 
2 | NC(=O)CC[C@@H]1NC(=O)[C@H](Cc2ccccc2)NC(=O)[C@H](Cc2ccc(O)cc2)NC(=O)CCSSC[C@@H](C(=O)N2CCC[C@H]2C(=O)N[C@H](CCCN=C(N)N)C(=O)NCC(N)=O)NC(=O)[C@H](CC(N)=O)NC1=O [Desmopressin] | -7.34 |  | 
3 | c1cc2ccc3cccc4ccc(c1)c2c34 [Pyrene] | 4.92 | 5.17 | 
4 | CCCCCCCCCC(=O)[C@@H](O)CC [CAI-1] | 4.30 |  | Effect on the growth of cells (V. cholera cultures): no apparent effect; Encapsulation efficiency of CAI-1 during FNP (V. cholerae WN1102): > 98%
5 | Nc1ccc(O)c(C(=O)O)c1 [Mesalazine] | -1.98 | 0.46 | 
6 | CCN(CC)c1ccc2nc3c4ccccc4c(=O)cc-3oc2c1 [Nile Red] | 4.46 |  | NP behaviour after FNP at high dye loading [2]: immediate aggregation of NPs; Encapsulation efficiency of Nile Red [3]: > 98%

Source: patent publication US12083230B2, “Nano-encapsulation using GRAS materials and applications thereof” (priority 2015, dated 2024)
